Data published in the RepoRT retention time repository (doi:10.1016/j.jhazmat.2019.121712).

Test: Thermo Scientific Acclaim RSLC 120 C18, 100 × 2.1 mm, 2.2 µm, 30 °C; A: 90% water + 10% methanol + 0.01% formic acid + 5 mM ammonium formate; B: methanol + 0.01% formic acid + 5 mM ammonium formate; gradient (min/%B) 0.1/1 3/39 14/99.9 16/99.9
Settings: stereoisomer not certain
For `COC(=O)C(NC(=O)c1nn(CC2CCCCC2)c2ccccc12)C(C)(C)C` (stereo unspecified), the LC retention time was 12.9 min.
With `COC=C(C(=O)O)c1ccccc1Oc1cc(Oc2ccccc2C#N)ncn1` the LC retention time was 8.18 min.
Molecule `COc1ccc2c(c1)N(CC(C)CN(C)C)c1ccccc1S2=O` (stereo unspecified) has an LC retention time of 5.98 min.
`CNC(=O)C=C(C)OP(=O)(OC)OC` showed an LC retention time of 4.36 min.
`CC(CCc1ccc(O)cc1)NCC(O)c1ccc(O)cc1` (stereo unspecified) showed an LC retention time of 4.39 min.
For `CCC1CN2CCc3c([nH]c4cccc(OC)c34)C2CC1C(=COC)C(=O)OC` (stereo unspecified), the LC retention time was 6.23 min.
For `CN1C2CCC1CC(OC(=O)C(CO)c1ccccc1)C2` (stereo unspecified), the LC retention time was 4.36 min.
Work on `CCCCNC(=O)NS(=O)(=O)c1ccc(C)cc1` yielded an LC retention time of 7.68 min.
For `CCOc1cc(NC(C)=O)ccc1C(=O)OC`, the LC retention time was 6.63 min.
In the case of `Cc1ccc(NS(=O)(=O)N(C)C)cc1`, the LC retention time is reported as 7.25 min.
Molecule `CN(C)c1ccc(N=Nc2ccccc2)cc1` has an LC retention time of 12.4 min.
Molecule `CN1C(=O)CCC1c1cccnc1` (stereo unspecified) has an LC retention time of 3.75 min.
In the case of `COC(=O)c1ccccc1CS(=O)(=O)NC(=O)Nc1nc(OC)cc(OC)n1`, the LC retention time is reported as 8.77 min.
`CNC(C)Cc1ccc(O)c(O)c1` (stereo unspecified) gave an LC retention time of 2.59 min.
Molecule `NNC(N)=O` has an LC retention time of 1.33 min.
`Cc1ccc(N=Nc2c(O)ccc3ccccc23)c(C)c1` gave an LC retention time of 14.9 min.
Work on `Cc1nnc2n1-c1ccc([N+](=O)[O-])cc1C(c1ccccc1)=NC2` yielded an LC retention time of 6.91 min.
`CCN(Cc1ccncc1)C(=O)C(CO)c1ccccc1` (stereo unspecified) showed an LC retention time of 6.03 min.
For `CN1C2CCCC1CC(NC(=O)c1nn(C)c3ccccc13)C2` (stereo unspecified), the LC retention time was 4.99 min.
With `CN(CCO)c1nc2c(c(=O)n(C)c(=O)n2C)n1C` the LC retention time was 4.94 min.
For `COc1cc(C=C2CCCC(=Cc3ccc(O)c(OC)c3)C2=O)ccc1O`, the LC retention time was 9.59 min.
In the case of `CN=C(NC#N)NCCSCc1nc[nH]c1C`, the LC retention time is reported as 3.24 min.
In the case of `O=[N+]([O-])c1cncn1CCN1CCOCC1`, the LC retention time is reported as 4.09 min.
Molecule `CSC(C)=NOC(=O)N(C)SN(C)C(=O)ON=C(C)SC` has an LC retention time of 7.64 min.
With `COP(=S)(OC)Oc1ccc(S(N)(=O)=O)cc1` the LC retention time was 6.19 min.
Molecule `C=CCOc1ccccc1OCC(O)CNC(C)C` (stereo unspecified) has an LC retention time of 5.66 min.
`COC(=O)CCc1ccc(OCC(O)CNC(C)C)cc1` (stereo unspecified) gave an LC retention time of 5.18 min.
Molecule `CN(C)c1nc(N(C)C)nc(N(C)C)n1` has an LC retention time of 10.1 min.
`CCCS(=O)(=O)c1ccc2nc(NC(=O)OC)[nH]c2c1` showed an LC retention time of 5.86 min.
Molecule `O=C(OC1CC2CCC(C1)[N+]21CCCC1)C(O)(c1ccccc1)c1ccccc1` (stereo unspecified) has an LC retention time of 5.72 min.
With `CCN(CC)C(=O)C1C=C2c3cccc4c3C(O)(CC2N(C)C1)C(=O)N4` (stereo unspecified) the LC retention time was 4.23 min.
With `COC(=O)C(NC(=O)c1nn(CC2CCCCC2)c2ccccc12)C(C)C` (stereo unspecified) the LC retention time was 12.4 min.
For `O=S(=O)(O)c1ccc2ccccc2c1`, the LC retention time was 5.44 min.
`CCN(CC)CCOC(=O)C(c1ccccc1)C1CCCCC1` (stereo unspecified) showed an LC retention time of 9.19 min.
Molecule `CN(C)CCC=C1c2ccccc2COc2ccccc21` has an LC retention time of 7.01 min.
`CCOc1ccc(S(=O)(=O)O)c2cccnc12` gave an LC retention time of 3.56 min.
`O=S(=O)(O)NC1CCCCC1` showed an LC retention time of 6.99 min.
In the case of `CCN(CC)CC#CCOC(=O)C(O)(c1ccccc1)C1CCCCC1` (stereo unspecified), the LC retention time is reported as 8.92 min.
`CN(C)C1CSSSC1` gave an LC retention time of 3.16 min.
Work on `CC12CCC(=O)C=C1CCC1C2CCC2(C)C(OC(=O)c3ccccc3)CCC12` (stereo unspecified) yielded an LC retention time of 13.8 min.
`CCN(CC)CCN1c2ccccc2Sc2ccccc21` showed an LC retention time of 7.76 min.
For `CC12C=CC(=O)C=C1CCC1C2C(=O)CC2(C)C1CCC2(O)C(=O)CO` (stereo unspecified), the LC retention time was 7.85 min.
Molecule `CN(C)CCOC(C)(c1ccccc1)c1ccccn1` (stereo unspecified) has an LC retention time of 5.18 min.
For `CCC(C)N(C(=O)SCc1ccccc1)C(C)CC` (stereo unspecified), the LC retention time was 12.8 min.
For `N=c1nc(N2CCCCC2)cc(N)n1O`, the LC retention time was 4.88 min.
In the case of `CC1CCCC(C)N1CCCC(O)(c1ccccc1)c1ccccn1` (stereo unspecified), the LC retention time is reported as 6.01 min.
Molecule `CCCCCCCCc1ccc(OCCO)cc1` has an LC retention time of 12.4 min.
`OC(CCN1CCCCC1)(c1ccccc1)C1CCCCC1` (stereo unspecified) showed an LC retention time of 7.86 min.
In the case of `CNC(=O)Oc1cc(C)c(C)c(C)c1`, the LC retention time is reported as 8.1 min.
In the case of `CC(N)C(O)c1ccccc1` (stereo unspecified), the LC retention time is reported as 3.68 min.
In the case of `COCCCNc1nc(NC(C)C)nc(SC)n1`, the LC retention time is reported as 9.14 min.
In the case of `CCC(N)Cc1c[nH]c2ccccc12` (stereo unspecified), the LC retention time is reported as 5.04 min.
With `CCCCc1oc2ccc(NS(C)(=O)=O)cc2c1C(=O)c1ccc(OCCCN(CCCC)CCCC)cc1` the LC retention time was 10.1 min.
For `CCOc1ccc(NC(=O)OC(C)C)cc1OCC`, the LC retention time was 9.04 min.
In the case of `CC(CN1CCN(CCOCCO)CC1)CN1c2ccccc2Sc2ccccc21` (stereo unspecified), the LC retention time is reported as 9.08 min.
For `CN1CCN(CCCN2c3ccccc3Sc3ccc(S(=O)(=O)N(C)C)cc32)CC1`, the LC retention time was 8.15 min.
